Measured values published in patent publication US20210000806A1, “COMPOSITIONS AND METHODS FOR TREATING INFLAMMATORY BOWEL DISEASE AND FUSOBACTERIA-CAUSED OR RELATED DISEASES AND CONDITIONS” (priority 2018, published 2021).

What was measured:
[1] = system: inflammatory bowel disease (IBD); assay: Inventor's clinical experience with higher-dose rifaximin in colitis / IBD; assay type: in vivo, human
Description: Current doses are almost always an under-dosing with rifaximin; and there is no external dose reference or independent dose ranging study in colitis to be guided by.

ulcerative colitis = assay: Case report: patient with ulcerative colitis (pancolitis) treated with secnidazole, rifampicin and doxycycline; assay type: in vivo, human; conditions: patient history before the antibiotic combination
Method: A patient with a 12 year history of ulcerative colitis presented with 4-15 diarrhoeal stools every day and 2-3 at night.
They were commenced on secnidazole (400 mg three times daily) combined with rifampicin (increasing from 150 mg twice daily to 300 mg twice daily after four weeks), together with doxycycline (50 mg twice daily).
They then continued on the same regimen a further six months when a colonoscopy was repeated.

Structure (SMILES): CO[C@H]1/C=C/O[C@@]2(C)Oc3c(C)c(O)c4c(O)c(c5c(nc6cc(C)ccn65)c4c3C2=O)NC(=O)/C(C)=C\C=C\[C@H](C)[C@H](O)[C@@H](C)[C@@H](O)[C@@H](C)[C@H](OC(C)=O)[C@@H]1C [rifaximin]
- inhibiting inflammation by inhibiting the infection(s) ([1]; higher dose spread over 3 doses/day (3.3 g per day) versus current recommended doses (550 mg twice daily)): works far better
- remission with rifaximin alone ([1]; only using the higher and more frequent dosing): can be used to achieve remission

Structure (SMILES): Cn1cnc([N+](=O)[O-])c1Sc1ncnc2nc[nH]c12 [azathioprine]
- response to previous anti-inflammatory medications (ulcerative colitis): not achieving more than a transient response

Structure (SMILES): C[C@]12C=CC(=O)C=C1CC[C@@H]1[C@@H]2C(=O)C[C@@]2(C)[C@H]1CC[C@]2(O)C(=O)CO [prednisone]
- response to previous anti-inflammatory medications (ulcerative colitis): not achieving more than a transient response

Structure (SMILES): Nc1ccc(O)c(C(=O)O)c1 [mesalazine]
- response to previous anti-inflammatory medications (ulcerative colitis): not achieving more than a transient response
